Read-outs that look alike come from different tables or passages of the source.
Tests used:
[1] = test system: MV4;11 cells; experiment: Cell viability assay (CellTiter-Glo) in MV4;11 cells, alone or with gilteritinib; assay type: cell-based; conditions: Homo sapiens, MV4-11, 72 h, MV4;11 cells, three days, CellTiter-Glo, read-out: MV4
[2] = test system: MOLM-13 cells; experiment: Cell viability assay (CellTiter-Glo) in MOLM-13 cells, alone or with gilteritinib; assay type: cell-based; conditions: Homo sapiens, MOLM-13, 72 h, MOLM-13 cells, three days, CellTiter-Glo
[3] = compound alone (without gilteritinib), 11 IC50
[4] = with gilteritinib 10 nM, 11 IC50 gilteritinib
[5] = compound alone (without gilteritinib), read-out: MOLM-13 IC50
[6] = with gilteritinib 20 nM, read-out: MOLM-13 IC50 gilteritinib

SMILES	IC50 [1, 3] [nM]	IC50 [1, 4] [nM]	IC50 [2, 5] [nM]	IC50 [2, 6] [nM]
O=C1CCC(N2C(=O)c3ccc(NCCC[C@H]4C[C@H](n5cc(-c6cccc(NC7CCOCC7)n6)cn5)C4)cc3C2=O)C(=O)N1 (stereo partly drawn) [GS-222, 2-(2,6-Dioxopiperidin-3-yl)-5-((3-(trans-3-(4-(6-((tetrahydro-2H-pyran-4-yl)amino)pyridin-2-yl)-1H-pyrazol-1-yl)cyclobutyl)propyl)amino)isoindoline-3-dione]	> 1000	100 to 1000	> 1000	10 to 100
O=C1CCC(N2Cc3ccc(CCCCC4CC(n5cc(-c6cnc7ccccc7n6)cn5)C4)cc3C2=O)C(=O)N1 (stereo not drawn) [GS-225, 3-(1-Oxo-6-(4-(3-(4-(quinoxalin-2-yl)-1H-pyrazol-1-yl)cyclobutyl)butyl)isoindolin-2-yl)piperidine-2,6-dione]	100 to 1000	10 to 100	> 1000	10 to 100
O=C1CCC(N2Cc3cc(CCCCC4CC(n5cc(-c6cnc7ccccc7n6)cn5)C4)ccc3C2=O)C(=O)N1 (stereo not drawn) [GS-226, 3-(1-Oxo-5-(4-(3-(4-(quinoxalin-2-yl)-1H-pyrazol-1-yl)cyclobutyl)butyl)isoindolin-2-yl)piperidine-2,6-dione]	100 to 1000	100 to 1000	> 1000	> 1000
O=C1CCC(N2C(=O)c3ccc(NCCC[C@H]4C[C@H](n5cc(-c6ccccc6)cn5)C4)cc3C2=O)C(=O)N1 (stereo partly drawn) [GS-232, 2-(2,6-Dioxopiperidin-3-yl)-5-((3-(trans-3-(4-phenyl-1H-pyrazol-1-yl)cyclobutyl)propyl)amino)isoindoline-1,3-dione]	100 to 1000	100 to 1000	100 to 1000	> 1000
O=C1CCC(N2C(=O)c3ccc(NCCC[C@H]4C[C@H](n5cc(-c6cnccn6)cn5)C4)cc3C2=O)C(=O)N1 (stereo partly drawn) [GS-235, 2-(2,6-Dioxopiperidin-3-yl)-5-((3-(trans-3-(4-(pyrazin-2-yl)-1H-pyrazol-1-yl)cyclobutyl)propyl)amino)isoindoline-1,3-dione]	< 10	100 to 1000	> 1000	100 to 1000
CN1CCC(c2cccc(-c3cnn([C@H]4C[C@H](CCCNc5ccc6c(c5)C(=O)N(C5CCC(=O)NC5=O)C6=O)C4)c3)n2)CC1 (stereo partly drawn) [GS-237, 2-(2,6-Dioxopiperidin-3-yl)-5-((3-(trans-3-(4-(6-(1-methylpiperidin-4-yl)pyridin-2-yl)-1H-pyrazol-1-yl)cyclobutyl)propyl)amino)isoindoline-1,3-dione]	> 1000	100 to 1000	> 1000	100 to 1000
O=C1CCC(N2C(=O)c3ccc(NCCC[C@H]4C[C@H](n5cc(-c6ccnc(N7CCOCC7)n6)cn5)C4)cc3C2=O)C(=O)N1 (stereo partly drawn) [GS-239, 2-(2,6-Dioxopiperidin-3-yl)-5-((3-(trans-3-(4-(2-morpholinopyrimidin-4-yl)-1H-pyrazol-1-yl)cyclobutyl)propyl)amino)isoindoline-1,3-dione]	100 to 1000	10 to 100	> 1000	10 to 100
O=C1CCC(N2C(=O)c3ccc(NCCC[C@H]4C[C@H](n5cc(-c6nccc(N7CCOCC7)n6)cn5)C4)cc3C2=O)C(=O)N1 (stereo partly drawn) [GS-240, 2-(2,6-Dioxopiperidin-3-yl)-5-((3-(trans-3-(4-(4-morpholinopyrimidin-2-yl)-1H-pyrazol-1-yl)cyclobutyl)propyl)amino)isoindoline-1,3-dione]	10 to 100	< 10	100 to 1000	10 to 100
O=C1CCC(N2C(=O)c3ccc(NCCC[C@H]4C[C@H](n5cc(-c6cccc(N7CCOCC7)c6)cn5)C4)cc3C2=O)C(=O)N1 (stereo partly drawn) [GS-241, 2-(2,6-Dioxopiperidin-3-yl)-5-((3-(trans-3-(4-(3-morpholinophenyl)-1H-pyrazol-1-yl)cyclobutyl)propyl)amino)isoindoline-1,3-dione]	100 to 1000	100 to 1000	> 1000	100 to 1000
O=C1CCC(N2C(=O)c3ccc(NCCC[C@H]4C[C@H](n5cc(-c6ncccn6)cn5)C4)cc3C2=O)C(=O)N1 (stereo partly drawn) [GS-242, 2-(2,6-Dioxopiperidin-3-yl)-5-((3-(trans-3-(4-(pyrimidin-2-yl)-1H-pyrazol-1-yl)cyclobutyl)propyl)amino)isoindoline-1,3-dione]	> 1000	100 to 1000	> 1000	100 to 1000

The next lines start with the values.

IC50 [1, 3] [nM]	IC50 [1, 4] [nM]	IC50 [2, 5] [nM]	IC50 [2, 6] [nM]	SMILES
< 10	< 10	< 10	< 10	Cc1nn([C@H]2C[C@@H](CCCNc3ccc4c(c3)C(=O)N(C3CCC(=O)NC3=O)C4=O)C2)cc1-c1cnc2ccc(C3CCOCC3)cc2n1 (stereo partly drawn) [GS-223, 2-(2,6-Dioxopiperidin-3-yl)-5-((3-(cis-3-(3-methyl-4-(7-(tetrahydro-2H-pyran-4-yl)quinoxalin-2-yl)-1H-pyrazol-1-yl)cyclobutyl)propyl)amino)isoindoline-1,3-dione]
100 to 1000	10 to 100	100 to 1000	< 10	CN1CCC(c2ccc3ncc(-c4cnn([C@H]5C[C@H](CCCNc6ccc7c(c6)C(=O)N(C6CCC(=O)NC6=O)C7=O)C5)c4)nc3c2)CC1 (stereo partly drawn) [GS-224, 2-(2,6-Dioxopiperidin-3-yl)-5-((3-(trans-3-(4-(7-(1-methylpiperidin-4-yl)quinoxalin-2-yl)-1H-pyrazol-1-yl)cyclobutyl)propyl)amino)isoindoline-1,3-dione]
< 10	< 10	< 10	< 10	O=C1CCC(N2C(=O)c3ccc(NCCC[C@H]4C[C@@H](n5cc(-c6cnc7ccc(N8CCOCC8)cc7n6)c(C6CC6)n5)C4)cc3C2=O)C(=O)N1 (stereo partly drawn) [GS-227, 5-((3-(cis-3-(3-Cyclopropyl-4-(7-morpholinoquinoxalin-2-yl)-1H-pyrazol-1-yl)cyclobutyl)propyl)amino)-2-(2,6-dioxopiperidin-3-yl)isoindoline-1,3-dione]
< 10	< 10	< 10	< 10	O=C1CCC(N2C(=O)c3ccc(NCCC[C@H]4C[C@H](n5cc(-c6cnc7ccc(CN8CCNCC8)cc7n6)c(C6CC6)n5)C4)cc3C2=O)C(=O)N1 (stereo partly drawn) [GS-228, 5-((3-(trans-3-(3-Cyclopropyl-4-(7-(piperazin-1-ylmethyl)quinoxalin-2-yl)-1H-pyrazol-1-yl)cyclobutyl)propyl)amino)-2-(2,6-dioxopiperidin-3-yl)isoindoline-1,3-dione]
10 to 100	< 10	10 to 100	< 10	O=C1CCC(N2C(=O)c3ccc(NCCC[C@H]4C[C@H](n5cc(-c6cnc7ccc(OC8CCNCC8)cc7n6)c(C6CC6)n5)C4)cc3C2=O)C(=O)N1 (stereo partly drawn) [GS-229, 5-((3-(trans-3-(3-Cyclopropyl-4-(7-(piperidin-4-yloxy)quinoxalin-2-yl)-1H-pyrazol-1-yl)cyclobutyl)propyl)amino)-2-(2,6-dioxopiperidin-3-yl)isoindoline-1,3-dione]
10 to 100	< 10	10 to 100	< 10	O=C1CCC(N2C(=O)c3ccc(NCCC[C@H]4C[C@H](n5cc(-c6cnc7ccc(CN8CCOCC8)cc7n6)c(C6CC6)n5)C4)cc3C2=O)C(=O)N1 (stereo partly drawn) [GS-230, 5-((3-(trans-3-(3-Cyclopropyl-4-(7-(morpholinomethyl)quinoxalin-2-yl)-1H-pyrazol-1-yl)cyclobutyl)propyl)amino)-2-(2,6-dioxopiperidin-3-yl)isoindoline-1,3-dione]
10 to 100	< 10	10 to 100	< 10	O=C1CCC(N2C(=O)c3ccc(NCCC[C@H]4C[C@@H](n5cc(-c6cnc7ccc(C8CCNCC8)cc7n6)c(C6CC6)n5)C4)cc3C2=O)C(=O)N1 (stereo partly drawn) [GS-231, 5-((3-(cis-3-(3-Cyclopropyl-4-(7-(piperidin-4-yl)quinoxalin-2-yl)-1H-pyrazol-1-yl)cyclobutyl)propyl)amino)-2-(2,6-dixopiperidin-3-yl)isoindoline-1,3-dione]
100 to 1000	10 to 100	100 to 1000	10 to 100	N#Cc1cccc2nc(-c3cnn([C@H]4C[C@H](CCCNc5ccc6c(c5)C(=O)N(C5CCC(=O)NC5=O)C6=O)C4)c3)cnc12 (stereo partly drawn) [GS-233, 2-(1-(trans-3-(3-((2-(2,6-Dioxopiperidin-3-yl)-1,3-dioxoisoindolin-5-yl)amino)propyl)cyclobutyl)-1H-pyrazol-4-yl)quinoxaline-5-carbonitrile]
< 10	10 to 100	100 to 1000	10 to 100	O=C1CCC(N2C(=O)c3ccc(NCCC[C@H]4C[C@H](n5cc(-c6cnc7c(F)cccc7n6)cn5)C4)cc3C2=O)C(=O)N1 (stereo partly drawn) [GS-234, 2-(2,6-Dioxopiperidin-3-yl)-5-((3-(trans-3-(4-(5-fluoroquinoxalin-2-yl)-1H-pyrazol-1-yl)cyclobutyl)propyl)amino)isoindoline-1,3-dione]
100 to 1000	10 to 100	100 to 1000	10 to 100	O=C1CCC(N2C(=O)c3ccc(NCCC[C@H]4C[C@H](n5cc(-c6cccc(C7CCOCC7)n6)cn5)C4)cc3C2=O)C(=O)N1 (stereo partly drawn) [GS-236, 2-(2,6-Dioxopiperidin-3-yl)-5-((3-(trans-3-(4-(6-(tetrahydro-2H-pyran-4-yl)pyridin-2-yl)-1H-pyrazol-1-yl)cyclobutyl)propyl)amino)isoindoline-1,3-dione]
100 to 1000	10 to 100	10 to 100	10 to 100	O=C1CCC(N2C(=O)c3ccc(NCCC[C@H]4C[C@H](n5cc(-c6cccc(C7CCNCC7)n6)cn5)C4)cc3C2=O)C(=O)N1 (stereo partly drawn) [GS-238, 2-(2,6-Dioxopiperidin-3-yl)-5-((3-(trans-3-(4-(6-(piperidin-4-yl)pyridin-2-yl)-1H-pyrazol-1-yl)cyclobutyl)propyl)amino)isoindoline-1,3-dione]
